In brackets after ≈: the same amount, converted by molar mass.

One assay concerns Botrytis cinerea. Description: Preventive test against Cucumber Gray Mold disease. The format is in vivo. As to conditions: 96 h, 500 ppm, 4 days after inoculation, 23° C. As to the method:
Cucumber plants (cultivar: Satsukimidori), were each grown in a 15 cm.phi. plastic pot to the first leaf stage. The plants were sprayed with 10 ml/l pot of aqueous diluted suspensions of various types of wettable powders (including the wettable powder containing, as its active ingredient, compound No. 1 obtained in the Preparation Example 1, wettable powders, containing as active ingredients compounds Nos. 2-10 obtained in a manner similar to Preparation Example 1, and a wettable powder for a comparison chemical containing, as its active ingredient, tetrachloroisophthalonitrile obtained in manner similar to Preparation Example 1). After air-drying for 5 hours, the plants were inoculated with the mecelia of Botrytis cinerea inoculated with shaking in Yeast-Glucose liquid medium.
The cucumbers were kept in the humidic chamber at 23° C. for 4 days after inoculation and then checked with respect to their disease index. The checking was conducted as follows: The leaves were checked to determine the extent of lesion area and classified into six groups as indicated by indices 0, 1, 2, 3, 4, 5 based on the extent of the lesions and on the numbers of leaves n0, n1, n2, n3, n4, and n5 which corresponded to the indices, respectively, were also determined to calculate the disease index from the following equation.
1 lesion area of 1/5 times the total leaf area
2 lesion area of 2/5 times the total leaf area
3 lesion area of 3/5 times the total leaf area
4 lesion area of 4/5 times the total leaf area
5 lesion area above 4/5 times the total leaf area
(where n is the total number of checked leaves)
The preventive value was calculated from the following equation. [formula]
Regarding `CCC12SCCN1C(=S)N(c1cc(Cl)cc(Cl)c1)C2=O` (stereo not shown) [Compound No. 9, 7a-ethyl-6-(3,5-dichlorophenyl)perhydroimidazo[5,1-b]thiazole-5-thion-7-on], the pest or weed control at 500 ppm was 96%.
In turn, `CCCC12SCCN1C(=S)N(c1cc(Cl)cc(Cl)c1)C2=O` (stereo not shown) [Compound No. 10, 7a-n-propyl-6-(3,5-dichlorophenyl)perhydroimidazo[5,1-b]thiazole-5-thion-7-on] displayed a pest or weed control at 500 ppm of 94%.
The same measure, in the same setting: in the case of `N#Cc1c(Cl)c(Cl)c(Cl)c(C#N)c1Cl` [Tetrachloro isophthalonitrile, reference compound] it was 65%.
On to `CCC12SCCN1C(=O)N(c1cc(Cl)cc(Cl)c1)C2=O` (stereo not shown) [compound 7, 7a-ethyl-6-(3,5-dichlorophenyl)perhydroimidazo[5,1-b]thiazole-5,7-dion], for which the pest or weed control at 500 ppm was determined as 100%.

Another assay deals with Cochliobolus miyabeans. Description: Preventive test against Rice brown spot disease. The class given is in vivo, Cochliobolus miyabeans on rice plants (cultivar: Kinmaze). The conditions noted are these: Oryza sativa, 48 h, read-out: Preventive Value. As to the method: Rice plants (cultivar: Kinmaze) were each grown in a 10 cm.phi. porcelain pot to the 3-4 leaves stage. The plants were sprayed with 10 ml/l pot of aqueous diluted suspensions of various types of wettable powders of the chemicals of the invention and comparison chemical [bis(dimethyl thiocarbamoyl)disulfide). The wettable powders were prepared in a manner similar to test example 1.
After air drying for 5 hours, the plants were inoculated with a spore suspension of Cochliobolus miyabeans incubated with a chaffy medium at 25° C. for 5 days.
These plants were kept in the humidic chamber at 27° C. for 48 hours after inoculation and the number of lesions were counted and preventive value was calculated according to the following equation. [formula]
As for `CN(C)C(=S)SSC(=S)N(C)C` [Bis(dimethyl thiocarbamoyl)disulfide, reference compound], the pest or weed control at 500 ppm stood at 83.3%.
In the case of `CCC12SCCN1C(=S)N(c1cc(Cl)cc(Cl)c1)C2=O` (stereo not shown) [Compound No. 9, 7a-ethyl-6-(3,5-dichlorophenyl)perhydroimidazo[5,1-b]thiazole-5-thion-7-on], the pest or weed control at 500 ppm was found to be 82.9%.
As to `CCCC12SCCN1C(=S)N(c1cc(Cl)cc(Cl)c1)C2=O` (stereo not shown) [Compound No. 10, 7a-n-propyl-6-(3,5-dichlorophenyl)perhydroimidazo[5,1-b]thiazole-5-thion-7-on], the pest or weed control at 500 ppm was 83.2%.
Take `CCC12SCCN1C(=O)N(c1cc(Cl)cc(Cl)c1)C2=O` (stereo not shown) [compound 7, 7a-ethyl-6-(3,5-dichlorophenyl)perhydroimidazo[5,1-b]thiazole-5,7-dion]: the pest or weed control at 500 ppm came to 90.8%.

The next assay deals with Sclerotinia sclerotiorum. The experiment in a line: Preventive test against kidney bean stem rot. The format is in vivo. The conditions noted are these: 500 ppm, 4 days, 25° C. As to the method:
Kidney bean plants (cultivar: Kintoki) were each grown in a 15 cm.phi. plastic pot to the trifoliate stage. The plants were sprayed with 10 ml/l pot of an aqueous diluted suspension of wettable powders of the chemicals of the invention and comparison chemical.
The wettable powders were prepared in a manner similar to example 1. After air drying for 5 hours, the plants were inoculated with mecelia of Sclerotinia sclerotiorum incubated with shaking in a Yeast-Glucose liquid medium, and kept in a humidic chamber at 25° C. for 4 days. Then the preventive value was calculated according to the equation given in test example 1.
For the molecule `Nc1c(Cl)cc([N+](=O)[O-])cc1Cl` [2,6dichloro-4-nitroaniline, reference compound], the “Preventive Value” stood at 70.5%.

The subject of a further assay is Botrytis cinerea (strain I). Description: Antifungal Test (PDA medium), Botrytis cinerea (strain I). The class given is cell-based. As to conditions: 96 h, 25° C., 4 days, read-out: MIC Concentration. The procedure: (§1) Each chemical was mixed with PDA medium in an amount enough to obtain the pre-determined concentration level and solidified in 9 cm.phi. Petri dish. Then, various plant disease fungi were inoculated on the middle of the mixed agar plate and cultured at 25° C. for 4 days.
(§2) The minimum inhibition concentration (MIC) means that at which the development of the inoculated fungus was not recognized with the naked eye.
Turning to `CCCCNC(=O)n1c(NC(=O)OC)nc2ccccc21` [Benlate, reference compound], the MIC was determined as 0.4 µg/mL (≈ 1.38 µM).

In a further assay the test system is Botrytis cinerea (strain II). The experiment in a line: Antifungal Test (PDA medium), Botrytis cinerea (strain II). The class given is cell-based. The conditions noted are these: 96 h, resistant to benzoimidazole type fungicide, 25° C., 4 days, read-out: MIC Concentration. As to the method:
as §1, §2
*Botrytis cinerea (strain II) is the strain resistant to
benzoimidazoletype fungicide e.g. Benlate, TopsinM.
For the molecule `CCCCNC(=O)n1c(NC(=O)OC)nc2ccccc21` [Benlate, reference compound], the MIC is above 100 µg/mL.

For another assay, the system named is Altrenaria mali. The experiment in a line: Antifungal Test (PDA medium), Altrenaria mali. The class given is cell-based. The conditions noted are these: 96 h, 25° C., 4 days, read-out: MIC Concentration. The procedure:
as §1, §2
For the molecule `CCCCNC(=O)n1c(NC(=O)OC)nc2ccccc21` [Benlate, reference compound], the MIC was above 100 µg/mL.

A further assay deals with Altrenaria Kikuchiana. The experiment in a line: Antifungal Test (PDA medium), Altrenaria Kikuchiana. The conditions noted are these: 96 h, 25° C., 4 days, read-out: MIC Concentration. The class given is cell-based. The procedure:
as §1, §2
For the molecule `CCCCNC(=O)n1c(NC(=O)OC)nc2ccccc21` [Benlate, reference compound], the MIC is above 100 µg/mL.

These data come from patent publication US4229461A, “Fungicidal 6-(3,5-dichlorophenyl)perhydroimidazo[5,1-b]thiazole derivatives” (Mitsubishi Chemical Industries Limited, priority 1978, dated 1980).
